The text below walks through data of patent publication US10191062B2, “Model gut system” (priority 2013, dated 2019).

A word on the pKa: it is the negative logarithm of the acid dissociation constant.

Structures are written as SMILES.

For data set [1] the following is noted: fatty acid released from the triglyceride substrate; cited from earlier work.
Data set [2] deals with lipase. The data set can be described thus: Glyceryl trioctanoate digestion in the model gut system (MGS), glycerol release. The format is biochemical, porcine. Particulars: 2 mmol glyceryl trioctanoate; Orlistat at 2.5, 5 and 10 mg vs control digestion; FIG. 6.
Procedure: Fresh porcine bile was extracted from fresh procine gall bladders (collected on ice from abattoir). Approximately 50 gall bladders were collected per batch. The collected bile was pooled, mixed and frozen down in 25 ml aliquots for storage, as 25 ml is required for each replicate.
Glyceryl trioctanoate was used as the tryglyceride substrate for all assays of fat digestion reported herein. In these experiments, 2 mmol (0.94136 g) of glyceryl trioctanoate was added to the synthetic saliva preparations at T[−10] wherein T[−10] means 10 minutes prior to addition of the synthetic saliva to the test system.
At T[−10], salivary preparations containing substrate/sample/controls were prepared as indicated hereinbefore and incubated for 10 minutes on rollers. […]
In all the experiments, data samples of 0.5 ml were taken at T0, T5, T10, T15, T30, T45, T60, T60^B, T65, T70, T75, T90, T105, T120, T150 and T180, wherein (T60^B) represents a second sample at T60 which was taken after the addition of fresh porcine bile. […] The test samples were stored at 4° C. overnight to allow for precipitation and then centrifuged at 10,000 r.p.m. for 10 minutes, after which the supernatant was analysed. […]
Triglyceride digestion can be measured using ZenBio Glycerol Reagent A to quantify the release of glycerol. A 5 μl of sample was incubated with 80 μl Reagent A for 30 minutes and colour development was measured at 550 nm. […]

For `CCCC(=O)O` [Butyric Acid], in data set [1], the pKa is given as 4.84.
In the case of `CCCCCCCC/C=C\CCCCCCCC(=O)O` [Oleic Acid], the pKa in data set [1] is 9.95.
For the molecule `CCCCCCCCCCC[C@@H](C[C@@H]1OC(=O)[C@H]1CCCCCC)OC(=O)[C@H](CC(C)C)NC=O` [Orlistat], in data set [2], the “total glycerol recovered from the model gut system after TCA precipitation” value was “varies in accordance with the level of Orlistat”.
On to `CCCCCCCCCCCCCCCC(=O)O` [Palmitic Acid], for which, in data set [1], the pKa is recorded as 9.7.
In the case of `CCCCCCCCCCCCCCCCCC(=O)O` [Stearic Acid], the pKa in data set [1] is 10.15.
